Assay results: patent US20100272699A1, “MC-1R, MC-2R, and/or µ OPIOID RECEPTORS STIMULATION” (BASF BEAUTY CARE SOLUTIONS FRANCE S.A.S., priority 2007, published 2010)

Assays:
Type in all cases: cell-based, human
MC-1R = test: RT-PCR of MC-1R mRNA in keratinocytes put in contact with actives; conditions: for stimulation of mRNA synthesis of the 3 receptors (MC-1R): positive controls in keratinocytes: TGF-β 1 ng/ml, TNF-α 100 ng/mL, IL-1α 50 pg/ml, quantitative RT-PCR (x2 or x.08 for the 3 inducers)
From the text: (§1) In particular, the extracts are obtained by macerating plants (preferably roots, rhizomes, stems, bark, flowers, fruits, seeds, germs, or leaves) at 1-10% (p/p), usually 1-5% in a solvent or a mixture of solvents, usually a mixture of water and alcohol, glycol, or polyol (such as ethanol, glycerol, butylene glycol and other glycols, xylitol, etc.) 100/0 to 0/100, and preferably in water. The extracts obtained are then filtered or distilled in order to recover the soluble portion, which is then filtered, preferably at 0.45 μm. Biotechnological hydrolysates are obtained via the fermentation of plant extracts in the presence of microorganisms usually from the family of lactic bacteria, in particular bactobacillus plantarum, or paracasei, and bifidobacterium, in particular longum or Saccharomyces. These hydrolysates are then filtered, preferably to 0.45 μm, in order to obtain the active components.
(§2) The characterized molecules are prepared via dissolution in a solvent, usually DMSO, ethanol, glycol, and in particular DMSO at a concentration of 0.1%.
(§3) The active components are tested for keratinocytes after dissolution in the culturing environment: usually between 0.1% and 2% (v/v) for plants and biotechnological hydrolysates and in particular from 0.5% to 1% and usually between 0.001% and 0.01% for characterized molecules. The present results are obtained with 1% in the culturing environment for plant extracts and biotechnological hydrolysates, and with 0.01% for characterized molecules.
(§4) Keratinocytes taken from plastic surgery on normal adults through enzymatic digestion have been amplified in a specific environment for keratinocytes and then seeded, for example at 50,000 per cm^2 in 24-well plates and cultivated in a single layer in a definite no-serum environment. Upon convergence, the cells are put in contact with diluted actives in the culturing environment, usually for 24 hours.
(§5) In parallel, an untreated control (environment alone) and 3 positive controls (TGF-β at 1 ng/ml, IL-1α at 50 pg/ml and TNF-α at 100 ng/mL) are usually carried out, for example on the same cultivation plate. TGF-β at 1 ng/ml, TNF-α at 100 ng/mL, and IL-1α at 50 pg/ml were previously tested and stimulation of mRNA synthesis of the 3 receptors induced by these 3 cytokins at these concentrations was verified through an analysis of mRNA, for example by quantatitive RT-PCR (x2 or x.08 for the 3 inducers). […]
(§6) The parameters of amplification have usually been the following: The technique of RT-PCR in real time is conducted with the “Quanti Tect SYBR Green RT-PCR” kit (Qiagen, France) on wells containing mRNA, in an OPTICON thermocycler, which carries out cycles of amplification. […] At the end of each cycle, fluorescence, which is proportional to the number of fragments amplified, is read. […]

MC-2R = test: RT-PCR of MC-2R mRNA in keratinocytes put in contact with actives; conditions: for stimulation of mRNA synthesis of the 3 receptors (MC-2R): positive controls in keratinocytes: TGF-β 1 ng/ml, TNF-α 100 ng/mL, IL-1α 50 pg/ml, quantitative RT-PCR (x2 or x.08 for the 3 inducers)
From the text: as §1, §2, §3, §4, §5, §6

μ opioid R = test: RT-PCR of μ opioid R mRNA in keratinocytes put in contact with actives; conditions: for stimulation of mRNA synthesis of the 3 receptors (μ opioid R): positive controls in keratinocytes: TGF-β 1 ng/ml, TNF-α 100 ng/mL, IL-1α 50 pg/ml, quantitative RT-PCR (x2 or x.08 for the 3 inducers)
From the text: as §1, §2, §3, §4, §5, §6

POMC = test: RT-PCR of POMC mRNA in keratinocytes put in contact with actives; conditions: mRNA vs untreated control, relative to actin, 24 hours, 1% plant extracts and biotechnological hydrolysates, 0.01% characterized molecules
From the text: as §1, with “components. […]” for “components.”
as §6

[1] = mRNA vs untreated control, relative to actin, keratinocytes, 24 hours, 1% plant extracts and biotechnological hydrolysates, 0.01% characterized molecules

Row | Molecule | stimulation of mRNA synthesis of the 3 receptors (MC-1R) (MC-1R) | stimulation of mRNA synthesis of the 3 receptors (MC-2R) (MC-2R) | stimulation of mRNA synthesis of the 3 receptors (μ opioid R) (μ opioid R) | MC-1R Control X: (MC-1R; [1]) [Control X] | MC-2R Control X: (MC-2R; [1]) [Control X] | μ opioid R Control X: (μ opioid R; [1]) [Control X] | POMC Control X: (POMC) [Control X]
1 | IL-1α: cytokine used as positive control at 50 pg/ml | stimulation | stimulation | stimulation |  |  |  | 
2 | TGF-β | stimulation | stimulation | stimulation |  |  |  | 
3 | TNF-α | stimulation | stimulation | stimulation |  |  |  | 
4 | CC1=CC(=O)C2=C(C)CC(OC(=O)Cc3ccccc3)C3C(C)C(=O)OC3C12 (stereo not shown) [phenylacetic acid 3,6,9-trimethyl-2,7-dioxo-2,3,3a,4,5,7,9a,9b-octahydro-azuleno[4,5-b]furan-4-yl] |  |  |  | 20.0 | 20.0 | 1.0 | 1
